Starred links: 1 amine or outer side, 2 acyl side, 3 side chain; linkers in the order of their positions; H or OH if unused. Positions of bridges follow the written chain, without caps; N, C: chain ends. Non-standard residues stand in square brackets, D forms with d. Residues, ends and D or L forms follow the SMILES beside them. *: point of attachment. hTyr(3S-OH,4S-OH,3'-OSO3H) = N[C@H](C(=O)O)[C@H](O)[C@@H](O)c1ccc(O)c(OS(=O)(=O)O)c1; Orn(4R-OH,5R-OH) = O=C([C@H](C[C@@H](O)[C@@H](O)N[*:3])N[*:1])[*:2]; Pro(3S-OH,4S-Me) = C[C@H]1CN[C@H](C(=O)O)[C@H]1O; X1 = CCCCCOc1ccc(-c2cc(-c3ccc(C(=O)*)cc3)no2)cc1; Gln(3R-OH) = NC(=O)C[C@@H](O)[C@H](N)C(=O)O; Hyp = O=C(O)[C@@H]1C[C@@H](O)CN1
Assay: Ratio of dry weight to wet weight (Dry/Wet) of filtered solids
Format: physicochemical
Settings: wet solids weighed after filtration, before drying
From the text: As used herein, the term “Dry/Wet” and “ratio of dry weight to wet weight” can be used interchangeably, both of which refer to the ratio of the weight of a compound without solvent(s) to the weight of the compound with solvent(s). In the present invention, wet weight of crystals is obtained by filtering the crystallized solids until no noticeable droplet outflows and weighing the solids.

In order of rising “ratio of dry weight to wet weight (Dry/Wet)” value:
1. CCCCCOc1ccc(-c2cc(-c3ccc(C(=O)N[C@H]4C[C@@H](O)[C@@H](O)NC(=O)[C@@H]5[C@@H](O)[C@@H](C)CN5C(=O)[C@H]([C@H](O)CC(N)=O)NC(=O)[C@H]([C@H](O)[C@@H](O)c5ccc(O)c(OS(=O)(=O)[O-])c5)NC(=O)[C@@H]5C[C@@H](O)CN5C(=O)[C@H]([C@@H](C)O)NC4=O)cc3)no2)cc1.[Na+] [Comparative Example 9] (X1-[Orn(4R-OH,5R-OH)]T[Hyp][hTyr(3S-OH,4S-OH,3'-OSO3H)][Gln(3R-OH)][Pro(3S-OH,4S-Me)]; lactam 1-C)  0.09
2. CCCCCOc1ccc(-c2cc(-c3ccc(C(=O)N[C@H]4C[C@@H](O)[C@@H](O)NC(=O)[C@@H]5[C@@H](O)[C@@H](C)CN5C(=O)[C@H]([C@H](O)CC(N)=O)NC(=O)[C@H]([C@H](O)[C@@H](O)c5ccc(O)c(OS(=O)(=O)[O-])c5)NC(=O)[C@@H]5C[C@@H](O)CN5C(=O)[C@H]([C@@H](C)O)NC4=O)cc3)no2)cc1.[Na+] [Comparative Example 11] (X1-[Orn(4R-OH,5R-OH)]T[Hyp][hTyr(3S-OH,4S-OH,3'-OSO3H)][Gln(3R-OH)][Pro(3S-OH,4S-Me)]; lactam 1-C)  0.11
3. CCCCCOc1ccc(-c2cc(-c3ccc(C(=O)N[C@H]4C[C@@H](O)[C@@H](O)NC(=O)[C@@H]5[C@@H](O)[C@@H](C)CN5C(=O)[C@H]([C@H](O)CC(N)=O)NC(=O)[C@H]([C@H](O)[C@@H](O)c5ccc(O)c(OS(=O)(=O)[O-])c5)NC(=O)[C@@H]5C[C@@H](O)CN5C(=O)[C@H]([C@@H](C)O)NC4=O)cc3)no2)cc1.[Na+] [Comparative Example 8] (X1-[Orn(4R-OH,5R-OH)]T[Hyp][hTyr(3S-OH,4S-OH,3'-OSO3H)][Gln(3R-OH)][Pro(3S-OH,4S-Me)]; lactam 1-C)  0.15
4. CCCCCOc1ccc(-c2cc(-c3ccc(C(=O)N[C@H]4C[C@@H](O)[C@@H](O)NC(=O)[C@@H]5[C@@H](O)[C@@H](C)CN5C(=O)[C@H]([C@H](O)CC(N)=O)NC(=O)[C@H]([C@H](O)[C@@H](O)c5ccc(O)c(OS(=O)(=O)[O-])c5)NC(=O)[C@@H]5C[C@@H](O)CN5C(=O)[C@H]([C@@H](C)O)NC4=O)cc3)no2)cc1.[Na+] [Comparative Example 15] (X1-[Orn(4R-OH,5R-OH)]T[Hyp][hTyr(3S-OH,4S-OH,3'-OSO3H)][Gln(3R-OH)][Pro(3S-OH,4S-Me)]; lactam 1-C)  0.15
5. CCCCCOc1ccc(-c2cc(-c3ccc(C(=O)N[C@H]4C[C@@H](O)[C@@H](O)NC(=O)[C@@H]5[C@@H](O)[C@@H](C)CN5C(=O)[C@H]([C@H](O)CC(N)=O)NC(=O)[C@H]([C@H](O)[C@@H](O)c5ccc(O)c(OS(=O)(=O)[O-])c5)NC(=O)[C@@H]5C[C@@H](O)CN5C(=O)[C@H]([C@@H](C)O)NC4=O)cc3)no2)cc1.[Na+] [Comparative Example 5] (X1-[Orn(4R-OH,5R-OH)]T[Hyp][hTyr(3S-OH,4S-OH,3'-OSO3H)][Gln(3R-OH)][Pro(3S-OH,4S-Me)]; lactam 1-C)  0.18
6. CCCCCOc1ccc(-c2cc(-c3ccc(C(=O)N[C@H]4C[C@@H](O)[C@@H](O)NC(=O)[C@@H]5[C@@H](O)[C@@H](C)CN5C(=O)[C@H]([C@H](O)CC(N)=O)NC(=O)[C@H]([C@H](O)[C@@H](O)c5ccc(O)c(OS(=O)(=O)[O-])c5)NC(=O)[C@@H]5C[C@@H](O)CN5C(=O)[C@H]([C@@H](C)O)NC4=O)cc3)no2)cc1.[Na+] [Comparative Example 12] (X1-[Orn(4R-OH,5R-OH)]T[Hyp][hTyr(3S-OH,4S-OH,3'-OSO3H)][Gln(3R-OH)][Pro(3S-OH,4S-Me)]; lactam 1-C)  0.18
7. CCCCCOc1ccc(-c2cc(-c3ccc(C(=O)N[C@H]4C[C@@H](O)[C@@H](O)NC(=O)[C@@H]5[C@@H](O)[C@@H](C)CN5C(=O)[C@H]([C@H](O)CC(N)=O)NC(=O)[C@H]([C@H](O)[C@@H](O)c5ccc(O)c(OS(=O)(=O)[O-])c5)NC(=O)[C@@H]5C[C@@H](O)CN5C(=O)[C@H]([C@@H](C)O)NC4=O)cc3)no2)cc1.[Na+] [Comparative Example 4] (X1-[Orn(4R-OH,5R-OH)]T[Hyp][hTyr(3S-OH,4S-OH,3'-OSO3H)][Gln(3R-OH)][Pro(3S-OH,4S-Me)]; lactam 1-C)  0.19
8. CCCCCOc1ccc(-c2cc(-c3ccc(C(=O)N[C@H]4C[C@@H](O)[C@@H](O)NC(=O)[C@@H]5[C@@H](O)[C@@H](C)CN5C(=O)[C@H]([C@H](O)CC(N)=O)NC(=O)[C@H]([C@H](O)[C@@H](O)c5ccc(O)c(OS(=O)(=O)[O-])c5)NC(=O)[C@@H]5C[C@@H](O)CN5C(=O)[C@H]([C@@H](C)O)NC4=O)cc3)no2)cc1.[Na+] [Comparative Example 14] (X1-[Orn(4R-OH,5R-OH)]T[Hyp][hTyr(3S-OH,4S-OH,3'-OSO3H)][Gln(3R-OH)][Pro(3S-OH,4S-Me)]; lactam 1-C)  0.19
9. CCCCCOc1ccc(-c2cc(-c3ccc(C(=O)N[C@H]4C[C@@H](O)[C@@H](O)NC(=O)[C@@H]5[C@@H](O)[C@@H](C)CN5C(=O)[C@H]([C@H](O)CC(N)=O)NC(=O)[C@H]([C@H](O)[C@@H](O)c5ccc(O)c(OS(=O)(=O)[O-])c5)NC(=O)[C@@H]5C[C@@H](O)CN5C(=O)[C@H]([C@@H](C)O)NC4=O)cc3)no2)cc1.[Na+] [Comparative Example 7] (X1-[Orn(4R-OH,5R-OH)]T[Hyp][hTyr(3S-OH,4S-OH,3'-OSO3H)][Gln(3R-OH)][Pro(3S-OH,4S-Me)]; lactam 1-C)  0.2
10. CCCCCOc1ccc(-c2cc(-c3ccc(C(=O)N[C@H]4C[C@@H](O)[C@@H](O)NC(=O)[C@@H]5[C@@H](O)[C@@H](C)CN5C(=O)[C@H]([C@H](O)CC(N)=O)NC(=O)[C@H]([C@H](O)[C@@H](O)c5ccc(O)c(OS(=O)(=O)[O-])c5)NC(=O)[C@@H]5C[C@@H](O)CN5C(=O)[C@H]([C@@H](C)O)NC4=O)cc3)no2)cc1.[Na+] [Comparative Example 13] (X1-[Orn(4R-OH,5R-OH)]T[Hyp][hTyr(3S-OH,4S-OH,3'-OSO3H)][Gln(3R-OH)][Pro(3S-OH,4S-Me)]; lactam 1-C)  0.2
11. CCCCCOc1ccc(-c2cc(-c3ccc(C(=O)N[C@H]4C[C@@H](O)[C@@H](O)NC(=O)[C@@H]5[C@@H](O)[C@@H](C)CN5C(=O)[C@H]([C@H](O)CC(N)=O)NC(=O)[C@H]([C@H](O)[C@@H](O)c5ccc(O)c(OS(=O)(=O)[O-])c5)NC(=O)[C@@H]5C[C@@H](O)CN5C(=O)[C@H]([C@@H](C)O)NC4=O)cc3)no2)cc1.[Na+] [Comparative Example 6] (X1-[Orn(4R-OH,5R-OH)]T[Hyp][hTyr(3S-OH,4S-OH,3'-OSO3H)][Gln(3R-OH)][Pro(3S-OH,4S-Me)]; lactam 1-C)  0.21
12. CCCCCOc1ccc(-c2cc(-c3ccc(C(=O)N[C@H]4C[C@@H](O)[C@@H](O)NC(=O)[C@@H]5[C@@H](O)[C@@H](C)CN5C(=O)[C@H]([C@H](O)CC(N)=O)NC(=O)[C@H]([C@H](O)[C@@H](O)c5ccc(O)c(OS(=O)(=O)[O-])c5)NC(=O)[C@@H]5C[C@@H](O)CN5C(=O)[C@H]([C@@H](C)O)NC4=O)cc3)no2)cc1.[Na+] [Comparative Example 10] (X1-[Orn(4R-OH,5R-OH)]T[Hyp][hTyr(3S-OH,4S-OH,3'-OSO3H)][Gln(3R-OH)][Pro(3S-OH,4S-Me)]; lactam 1-C)  0.23

Source: patent US10138275B2, “Crystalline powder of cyclic peptide compound, preparation method for same, and uses thereof” (SHANGHAI TECHWELL BIOPHARMACEUTICAL CO., LTD, priority 2014, dated 2018)
